Laboratory results: patent US20250129102A1, “CRYSTAL FORM OF PYRIMIDINE HETEROCYCLIC COMPOUND AND PREPARATION METHOD THEREFOR” (D3 Bio (Wuxi) Co., Ltd., priority 2021, published 2025)

What was measured:
[1] = test system: KRAS^G12C-mutated H358 cells; assay: cells; conditions: Homo sapiens, NCI-H358, 120 h, read-out: NCI-H358 IC50
Experimental: The main instrument used in this assay was a Nivo multi-label analyzer (PerkinElmer).
The assay was carried out in duplicate. 78 μL of medium was added to the intermediate plate, and then 2 μL of the serially diluted compound was transferred to each well of the intermediate plate according to the corresponding position. After mixing well, 20 μL per well was transferred to the cell plate. […] The cell plate was incubated in a carbon dioxide incubator for 5 days. Another cell plate was prepared, and the signal value of the cell plate was read on the day of compound addition as the maximum value (Max value in the equation below) to participate in data analysis. 25 μL of cell viability chemiluminescence detection reagent was added to each well of the cell plate, and the plate was incubated at room temperature for 10 minutes to stabilize the luminescence signal. A multi-label analyzer was used for reading the plate. • 3) 25 μL of cell viability chemiluminescence detection reagent was added to each well of the cell plate, and the plate was incubated at room temperature for 10 minutes to stabilize the luminescence signal. A multi-label analyzer was used for reading the plate.

[2] = In vitro stability in liver microsomes, SD rats; assay type: in vitro ADME; conditions: rat, 0.5 mg/mL
Experimental: Metabolic stabilities of the assay compound in liver microsomes of CD-1 mice, SD rats, beagle dogs, cynomolgus monkeys, and human were assayed, respectively.
Two 96-well incubation plates were prepared and named T60 incubation plate and NCF60 incubation plate, respectively. 445 μL of microsomal working solutions (liver microsomal protein concentration of 0.56 mg/mL) were added to the T60 incubation plate and the NCF60 incubation plate, respectively, and then the above incubation plates were pre-incubated in a 37° C. water bath for about 10 minutes.
After the pre-incubation, 5 μL of working solutions of the assay sample or the control compound were added to the T60 incubation plate and the NCF60 incubation plate, respectively, and the mixture was mixed well. 50 μL of potassium phosphate buffer was added to each well of the NCF60 incubation plate to initiate the reaction. 180 μL of stop solution (200 ng/mL tolbutamide and 200 ng/mL labetalol in acetonitrile) and 6 uL of NADPH regeneration system working solution were added to the T0 stop plate, and 54 μL of sample was transferred from T60 incubation plate to T0 stop plate (generation of T0 sample). The reaction was initiated by adding 44 μL of NADPH regeneration system working solution to each well of the T60 incubation plate. Only 54 μL of microsome working solution, 6 uL of NADPH regeneration system working solution and 180 μL of stop solution were added to the Blank plate. Therefore, in samples of the assay compound or the control compound, the final reaction concentration of compound, testosterone, diclofenac and propafenone was 1 μM, the concentration of liver microsomes was 0.5 mg/mL, and the final reaction concentrations of DMSO and acetonitrile in the reaction system were 0.01% (v/v) and 0.99% (v/v), respectively. […] All samples were injected and analyzed by liquid chromatography-tandem mass spectrometry.

[3] = Metabolic stability in hepatocytes, SD rats; assay type: in vitro ADME; conditions: rat, cryopreserved hepatocytes
Experimental: (§1) Metabolic stabilities of assay compound in hepatocytes of CD-1 mice, SD rats, beagle dogs, cynomolgus monkeys, and human were assayed, respectively.
(§2) Several 96-well sample precipitation plates were prepared and named T0, T15, T30, T60, T90, T120, T0-MC, T120-MC and blank substrates, respectively. The recovery medium and incubation medium were taken out in advance and placed in a 37° C. water bath for pre-heating. Cryopreserved hepatocytes were removed from the liquid nitrogen tank and immediately immersed in a 37° C. water bath (approximately 90 seconds). After the cryopreserved hepatocytes had thawed and loosened, they were poured into a centrifuge tube containing 40 mL of recovery medium, and the tube was gently inverted to allow the cells to be resuspended in the recovery medium. The cells were centrifuged at 100×g at room temperature for 5 min, and the supernatant was removed. The hepatocytes were resuspended in an appropriate volume of incubation medium, and the cell viability was calculated by Trypan Blue staining method. 198 μL of hepatocyte suspension (0.51×10^6 cells/mL) was added to the preheated incubation plate. For the culture medium control group, 198 μL of hepatocyte-free incubation medium was added to T0-MC and T120-MC incubation plate. All incubation plates were pre-incubated in a 37° C. incubator for 10 minutes. Then 2 μL of working solutions of the assay sample and the control compound were added, respectively, and the mixture was mixed well. The incubation plate was immediately put into the shaker in the incubator, and the reaction was initiated while starting the timer. For each time point of each compound, 2 duplicate samples were prepared. The incubation conditions were 37° C., saturated humidity, and 5% CO2. […] All samples were mixed well and analyzed by LC/MS/MS.

[4] = Metabolic stability in hepatocytes, beagle dogs; assay type: in vitro ADME; conditions: dog, cryopreserved hepatocytes
Experimental: as §1, §2

[5] = Protein binding rate in plasma by equilibrium dialysis, beagle dogs; assay type: in vitro ADME; conditions: 2 μM, equilibrium dialysis 4 hours
Experimental: (§3) Protein binding rate of the assay compound in plasma of CD-1 mice, SD rats, beagle dogs, cynomolgus monkeys and human was determined by equilibrium dialysis. Plasma samples with a compound concentration of 2 μM were prepared using plasma of the above five species, placed in a 96-well equilibrium dialysis device, and dialyzed with phosphate buffer solution at 37±1° C. for 4 hours. Warfarin was used as the control compound in this assay. The concentrations of the assay compound in plasma and dialysis buffer were determined by LC-MS/MS method.

[6] = Protein binding rate in plasma by equilibrium dialysis, cynomolgus monkeys; assay type: in vitro ADME; conditions: 2 μM, equilibrium dialysis 4 hours
Experimental: as §3

SMILES: C=C(F)C(=O)N1CCN(c2nc(OC[C@@]34CCCN3C[C@H](F)C4)nc3c2CO[C@H](c2c(F)c(N)cc(C)c2C(F)(F)F)C3)C[C@@H]1CC#N [Compound of formula (I)]
- IC50 [1]: 0.6 nM
- CLint scaled at 1 μM [2]: 108 mL/min/kg
- half-life at 1 μM [2]: 23 min
- microsomal CLint at 1 μM ([2]; read-out: CLint(hep)): 60.2 µL/min/mg
- half-life at 1 μM [3]: 20.6 min
- hepatocyte CLint at 1 μM ([3]; read-out: CLint(hep)): 67.4 µL/min/1e6 cells
- CLint scaled at 1 μM ([3]; read-out: CLint(liver)): 315 mL/min/kg
- half-life at 1 μM [4]: 182 min
- hepatocyte CLint at 1 μM ([4]; read-out: CLint(hep)): 7.6 µL/min/1e6 cells
- CLint scaled at 1 μM ([4]; read-out: CLint(liver)): 52.3 mL/min/kg
- Protein unbound rate (%) [5]: 3.3%
- Protein unbound rate (%) [6]: 7.8%
